Experimental data: a compilation of properties of binary mixtures (doi:10.1021/je300622r)

Test: xn = mol fraction of the nth substance listed
Conditions: 101 kPa

CCOS(=O)(=O)[O-].CC[n+]1ccn(C)c1 + O
viscosity (283.15 K, x2 = 0.0023): 242.3 mPa·s
viscosity (283.15 K, x2 = 0.1225): 171.3 mPa·s
viscosity (283.15 K, x2 = 0.427): 62.49 mPa·s
viscosity (283.15 K, x2 = 0.798): 14.52 mPa·s
viscosity (283.15 K, x2 = 0.8983): 6.801 mPa·s
viscosity (293.15 K, x2 = 0.1966): 81.3 mPa·s
viscosity (293.15 K, x2 = 0.427): 40.03 mPa·s
viscosity (293.15 K, x2 = 0.6124): 21.82 mPa·s
viscosity (293.15 K, x2 = 0.798): 10.01 mPa·s
viscosity (293.15 K, x2 = 0.8983): 4.853 mPa·s
viscosity (303.15 K, x2 = 0.0023): 81 mPa·s
viscosity (303.15 K, x2 = 0.1225): 62.11 mPa·s
viscosity (303.15 K, x2 = 0.1966): 52.09 mPa·s
viscosity (303.15 K, x2 = 0.427): 27.26 mPa·s
viscosity (303.15 K, x2 = 0.6124): 15.38 mPa·s
viscosity (303.15 K, x2 = 0.798): 7.24 mPa·s
viscosity (303.15 K, x2 = 0.8983): 3.618 mPa·s
viscosity (313.15 K, x2 = 0.0023): 52.62 mPa·s
viscosity (313.15 K, x2 = 0.1225): 41.51 mPa·s
viscosity (313.15 K, x2 = 0.1966): 35.42 mPa·s
viscosity (313.15 K, x2 = 0.427): 19.53 mPa·s
viscosity (313.15 K, x2 = 0.6124): 11.33 mPa·s
viscosity (313.15 K, x2 = 0.798): 5.453 mPa·s
viscosity (313.15 K, x2 = 0.8983): 2.793 mPa·s
viscosity (323.15 K, x2 = 0.0023): 36.24 mPa·s
viscosity (323.15 K, x2 = 0.1225): 29.17 mPa·s
viscosity (323.15 K, x2 = 0.1966): 25.3 mPa·s
viscosity (323.15 K, x2 = 0.6124): 8.663 mPa·s
viscosity (323.15 K, x2 = 0.798): 4.246 mPa·s
viscosity (323.15 K, x2 = 0.8983): 2.221 mPa·s
viscosity (333.15 K, x2 = 0.0023): 26.16 mPa·s
viscosity (333.15 K, x2 = 0.1225): 21.46 mPa·s
viscosity (333.15 K, x2 = 0.1966): 18.81 mPa·s
viscosity (333.15 K, x2 = 0.427): 11.24 mPa·s
viscosity (333.15 K, x2 = 0.6124): 6.824 mPa·s
viscosity (333.15 K, x2 = 0.798): 3.402 mPa·s
viscosity (333.15 K, x2 = 0.8983): 1.813 mPa·s
viscosity (343.15 K, x2 = 0.1225): 16.37 mPa·s
viscosity (343.15 K, x2 = 0.6124): 5.518 mPa·s
viscosity (343.15 K, x2 = 0.798): 2.791 mPa·s
viscosity (343.15 K, x2 = 0.8983): 1.518 mPa·s

CC[n+]1ccn(C)c1.COS(=O)(=O)[O-] + O
viscosity (278.15 K, x2 = 0.0023): 246.3 mPa·s
viscosity (278.15 K, x2 = 0.0887): 226 mPa·s
viscosity (278.15 K, x2 = 0.2235): 164.6 mPa·s
viscosity (278.15 K, x2 = 0.4163): 81.88 mPa·s
viscosity (278.15 K, x2 = 0.6106): 36.75 mPa·s
viscosity (278.15 K, x2 = 0.7999): 14.47 mPa·s
viscosity (278.15 K, x2 = 0.8948): 6.791 mPa·s
viscosity (288.15 K, x2 = 0.0887): 129.2 mPa·s
viscosity (288.15 K, x2 = 0.2235): 97.7 mPa·s
viscosity (288.15 K, x2 = 0.4163): 51.53 mPa·s
viscosity (288.15 K, x2 = 0.6106): 24.28 mPa·s
viscosity (288.15 K, x2 = 0.7999): 9.971 mPa·s
viscosity (298.15 K, x2 = 0.2235): 62.41 mPa·s
viscosity (298.15 K, x2 = 0.4163): 34.54 mPa·s
viscosity (298.15 K, x2 = 0.6106): 16.97 mPa·s
viscosity (298.15 K, x2 = 0.7999): 7.21 mPa·s
viscosity (298.15 K, x2 = 0.8948): 3.635 mPa·s
viscosity (308.15 K, x2 = 0.0023): 54.77 mPa·s
viscosity (308.15 K, x2 = 0.0887): 53.07 mPa·s
viscosity (308.15 K, x2 = 0.6106): 12.4 mPa·s
viscosity (308.15 K, x2 = 0.7999): 5.427 mPa·s
viscosity (318.15 K, x2 = 0.0887): 37.01 mPa·s
viscosity (318.15 K, x2 = 0.2235): 30.1 mPa·s
viscosity (318.15 K, x2 = 0.4163): 17.94 mPa·s
viscosity (318.15 K, x2 = 0.6106): 9.404 mPa·s
viscosity (318.15 K, x2 = 0.7999): 4.222 mPa·s
viscosity (318.15 K, x2 = 0.8948): 2.247 mPa·s
viscosity (328.15 K, x2 = 0.0887): 26.98 mPa·s
viscosity (328.15 K, x2 = 0.2235): 22.43 mPa·s
viscosity (328.15 K, x2 = 0.4163): 13.72 mPa·s
viscosity (328.15 K, x2 = 0.6106): 7.362 mPa·s
viscosity (328.15 K, x2 = 0.7999): 3.378 mPa·s
viscosity (328.15 K, x2 = 0.8948): 1.836 mPa·s
viscosity (338.15 K, x2 = 0.0023): 20.53 mPa·s
viscosity (338.15 K, x2 = 0.0887): 20.42 mPa·s
viscosity (338.15 K, x2 = 0.2235): 17.93 mPa·s
viscosity (338.15 K, x2 = 0.7999): 2.767 mPa·s
viscosity (338.15 K, x2 = 0.8948): 1.534 mPa·s
